Earlier results in patent US20240374563A1, “ANTICHOLINERGIC COMPOUNDS FOR USE IN TREATING NEUROMUSCULAR DISORDERS” (UNIVERSITY OF MONTRÉAL, priority 2022, published 2024).

Test system: ALS patients
Details: cited from earlier work

Nc1nc2ccc(OC(F)(F)F)cc2s1 [Riluzole]
share of ALS patients who benefit: 20%
